This note sets out measurements from US20230219965A1 (KSQ Therapeutics, Inc., priority 2020, published 2023).

Molecules are shown by their SMILES. Where two headings read alike, the source gives them in different places. Where only a bound is given, the exact number is not on record here.

Series [1] can be described thus: Liver microsomal metabolic stability, rat liver microsomes (RLM). The settings on record: rat, liver microsomes, t1/2 (min) in RLM, 1 μM compound, 1 mg/mL microsomes, NADPH. (In general: Liver microsomes are vesicles of endoplasmic reticulum, rich in cytochrome P450 enzymes.)
Series [2] is described as follows: ADME solubility determination in PBS at pH 2.0 and pH 7.4. The format is physicochemical. The settings on record: phosphate buffered saline, 25 °C, thermodynamic from solid. As for the experimental part:
Certain Compounds of the Disclosure were assessed for ADME solubility at pH 2.0 and pH 7.4.
Stock solutions were prepared by adding each compound to DMSO at a concentration of 10 mM. Samples were prepared by adding 50 μL of each stock solution to separate vials. The vials were loaded onto a 96-well rack and dried. 500 μL of Phosphate Buffered Saline (PBS) pH 7.4 or PBS pH 2.0 were added into each vial. The vials were then shaken at 25° C. and 1,100 rpm for 24 hours.
After 24 hours, the vials were centrifuged at 3220 G and 25° C. for 30 minutes. The supernatant fluid was analyzed by LC-MS/MS against a standard of known concentration. The solubility of each sample was then calculated using the equation below: […]
where DF is the dilution factor.

The target of another series is USP1/UAF1 enzyme (Homo sapiens, UniProt O94782). Nature of the series: USP1/UAF1 deubiquitination assay (ubiquitin-rhodamine 110 substrate). Format: biochemical. As to conditions: read-out: USP1 IC50 (Ub-Rho). An outline of the steps: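 0.05 nM USP1/UAF1 was preincubated 10 min with compounds (dose response from 10 μM) in 50 mM Tris-HCl pH 7.8, 0.5 mM EDTA, 0.01% BSA, 1 mM DTT, 0.01% Tween-20. 150 nM ubiquitin-rhodamine 110 started the reaction, read kinetically 30 min at Ex480/Em540; IC50 by four-parameter fit versus no-enzyme and DMSO controls.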

The nature of series [3]: Liver microsomal metabolic stability, human liver microsomes (HLM). The settings on record: human, liver microsomes.
The mark [4] stands for this setting: pH 2, aqueous buffer, PBS pH 2.0, 25° C., read-out: Solubility at pH 2.0.
The mark [5] stands for this setting: pH 7.4, aqueous buffer, PBS pH 7.4, 25° C., read-out: Solubility at pH 7.4.

Chain of USP1/UAF1 enzyme (O94782 whole entry): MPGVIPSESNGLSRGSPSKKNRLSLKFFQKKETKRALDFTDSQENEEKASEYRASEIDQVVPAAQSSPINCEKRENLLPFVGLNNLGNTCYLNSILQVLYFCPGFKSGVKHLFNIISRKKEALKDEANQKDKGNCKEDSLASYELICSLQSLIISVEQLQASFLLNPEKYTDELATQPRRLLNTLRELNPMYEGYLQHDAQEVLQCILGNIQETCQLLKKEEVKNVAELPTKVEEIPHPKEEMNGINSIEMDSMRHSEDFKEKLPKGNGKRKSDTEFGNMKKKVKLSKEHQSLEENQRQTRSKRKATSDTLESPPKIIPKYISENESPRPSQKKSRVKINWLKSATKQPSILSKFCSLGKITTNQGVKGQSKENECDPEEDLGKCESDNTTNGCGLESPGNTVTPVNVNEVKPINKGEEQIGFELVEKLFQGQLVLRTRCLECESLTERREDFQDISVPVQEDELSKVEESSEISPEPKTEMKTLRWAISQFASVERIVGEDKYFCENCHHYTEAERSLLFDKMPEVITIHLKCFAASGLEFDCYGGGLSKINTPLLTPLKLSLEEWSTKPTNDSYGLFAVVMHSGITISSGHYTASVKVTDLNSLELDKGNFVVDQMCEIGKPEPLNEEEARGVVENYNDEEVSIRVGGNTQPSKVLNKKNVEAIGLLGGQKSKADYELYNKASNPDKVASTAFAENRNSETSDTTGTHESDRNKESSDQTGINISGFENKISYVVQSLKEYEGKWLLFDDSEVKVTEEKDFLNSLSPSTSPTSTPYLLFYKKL
Chain of USP1/UAF1 enzyme (Q8TAF3 whole entry partner): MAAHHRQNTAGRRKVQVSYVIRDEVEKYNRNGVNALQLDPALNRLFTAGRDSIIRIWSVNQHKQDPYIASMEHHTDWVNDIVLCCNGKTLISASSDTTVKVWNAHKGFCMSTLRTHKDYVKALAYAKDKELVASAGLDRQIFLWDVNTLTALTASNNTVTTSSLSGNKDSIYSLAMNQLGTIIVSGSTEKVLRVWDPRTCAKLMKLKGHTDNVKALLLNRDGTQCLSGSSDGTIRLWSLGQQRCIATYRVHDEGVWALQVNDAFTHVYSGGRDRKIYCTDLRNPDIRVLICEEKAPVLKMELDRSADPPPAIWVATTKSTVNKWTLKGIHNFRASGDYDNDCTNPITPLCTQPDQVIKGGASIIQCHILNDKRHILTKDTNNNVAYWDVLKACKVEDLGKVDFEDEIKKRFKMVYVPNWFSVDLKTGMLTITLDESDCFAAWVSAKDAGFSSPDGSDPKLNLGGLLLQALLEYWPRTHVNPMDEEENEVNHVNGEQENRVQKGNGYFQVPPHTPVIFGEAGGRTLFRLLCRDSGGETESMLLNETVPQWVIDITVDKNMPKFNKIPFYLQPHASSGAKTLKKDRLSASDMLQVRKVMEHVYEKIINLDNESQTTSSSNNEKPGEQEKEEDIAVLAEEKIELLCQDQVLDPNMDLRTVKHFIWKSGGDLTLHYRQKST

For `CCn1cc(C(F)(F)F)nc1-c1ccc(CN2C(=O)CCn3nc(-c4c(Cl)cnn4C4COC4)cc32)cc1` [Example 154, 2-(4-chloro-1-(oxetan-3-yl)-1H-pyrazol-5-yl)-4-(4-(1-ethyl-4-(trifluoromethyl)-1H-imidazol-2-yl)benzyl)-6,7-dihydropyrazolo[1,5-α]pyrimidin-5(4H)-one], the half-life at 1 μM in series [1] and in series [3] was above 25 min in each case. The solubility at 24 h in series [2] (setting [4]) and in series [2] (setting [5]) was below 10 µM each time. For the same compound, on USP1/UAF1 enzyme, the 50% inhibitory concentration (IC50) is below 0.1 µM.

Take `CCn1cc(C(F)(F)F)nc1-c1ccc(CN2C(=O)CCn3nc(-c4c(C#N)cnn4C(C)C)cc32)cc1` [Example 156]: the half-life at 1 μM in series [1] and in series [3] was above 25 min throughout. In addition, the solubility at 24 h in series [2] (setting [4]) and in series [2] (setting [5]) was below 10 µM in each case. The IC50 on USP1/UAF1 enzyme was below 0.1 µM.

In the case of `CCn1cc(C(F)(F)F)nc1-c1ccc([C@H](C)N2C(=O)CCn3nc(-c4c(Cl)cnn4C(C)C)nc32)cc1OC` [Example 179], the half-life at 1 μM in series [1] and in series [3] was below 25 min throughout. Besides, the solubility at 24 h is at least 10 µM in series [2] (setting [4]) and below 10 µM in series [2] (setting [5]). Moreover, the IC50 on USP1/UAF1 enzyme lay within 0.1 to 0.5 µM.

On to `CCn1cc(C(F)(F)F)nc1-c1c(F)cc(CN2C(=O)CCn3nc(-c4c(Cl)cnn4C(C)C)nc32)cc1OC` [Example 187], for which the half-life at 1 μM in series [1] is below 25 min; in series [3], above 25 min. Besides, the solubility at 24 h in series [2] (setting [4]) and in series [2] (setting [5]) was below 10 µM throughout. At USP1/UAF1 enzyme, the IC50 was 0.1 to 0.5 µM.

In the case of `COc1cc(-c2nc(C(F)(F)F)cn2C(C)C)c(F)cc1CN1C(=O)CCn2nc(-c3c(OC)ncnc3C3CC3)nc21` [Example 202], the half-life at 1 μM in series [1] and in series [3] was above 25 min each time. The solubility at 24 h in series [2] (setting [4]) and in series [2] (setting [5]) was below 10 µM in each case. Further, at USP1/UAF1 enzyme, the concentration for half-maximal inhibition (IC50) is below 0.1 µM.

Turning to `COc1ncnc(C2CC2)c1-c1nc2n(n1)CCC(=O)N2[C@@H](C)c1ccc(-c2nc(C(F)(F)F)c(Br)n2C)cc1` [Example 205], the half-life at 1 μM is above 25 min in series [1] and below 25 min in series [3]. Moreover, the solubility at 24 h in series [2] (setting [4]) was below 10 µM; in series [2] (setting [5]), at least 10 µM. For the same compound, the half-inhibitory concentration (IC50) on USP1/UAF1 enzyme was below 0.1 µM.

`COc1ccnc(C2CC2)c1-c1nc2n(n1)CCC(=O)N2Cc1ccc(-c2nc(C(F)(F)F)cn2C(C)C)c(F)c1` [Example 207]: the half-life at 1 μM is above 25 min in series [1] and below 25 min in series [3]. The solubility at 24 h in series [2] (setting [4]) is at least 10 µM; in series [2] (setting [5]), below 10 µM. At USP1/UAF1 enzyme, the IC50 is 0.1 to 0.5 µM.

On to `CCn1cc(C(F)(F)F)nc1-c1ccc([C@@H](C)N2C(=O)CCn3nc(-c4c(OC(F)F)ncnc4C4CC4)nc32)cc1` [Example 208], for which the half-life at 1 μM in series [1] was below 25 min; in series [3], above 25 min. Moreover, the solubility at 24 h in series [2] (setting [4]) and in series [2] (setting [5]) was at least 10 µM each time. Further, at USP1/UAF1 enzyme, the IC50 is below 0.1 µM.

As for `CCn1cc(C(F)(F)F)nc1-c1ccc([C@H](C)N2C(=O)CCn3nc(-c4c(OC(F)F)ncnc4C4CC4)nc32)cc1` [Example 209], the half-life at 1 μM in series [1] and in series [3] was below 25 min throughout. In addition, the figures for the solubility at 24 h in series [2] (setting [4]) and in series [2] (setting [5]) were at least 10 µM and below 10 µM, respectively. Besides, the half-maximal inhibitory concentration (IC50) at USP1/UAF1 enzyme is below 0.1 µM.

As to `CCn1cc(C(F)(F)F)nc1-c1ccc(CN2C(=O)CCn3nc(-c4c(Cl)cnn4C(C)C)c(C#N)c32)cc1` [Example 223, 2-(4-chloro-1-isopropyl-1H-pyrazol-5-yl)-4-(4-(1-ethyl-4-(trifluoromethyl)-1H-imidazol-2-yl)benzyl)-5-oxo-4,5,6,7-tetrahydropyrazolo[1,5-α]pyrimidine-3-carbonitrile], the results for the half-life at 1 μM in series [1] and in series [3] were above 25 min and below 25 min, respectively. For the same compound, the solubility at 24 h in series [2] (setting [4]) and in series [2] (setting [5]) was below 10 µM each time. Further, the IC50 at USP1/UAF1 enzyme is below 0.1 µM.

On to `CC(C)n1ncc(Cl)c1-c1cc2n(n1)CC(O)C(=O)N2Cc1ccc(-c2nc(C(F)(F)F)cn2C)cc1` (stereo not drawn) [Example 231, 2-(4-chloro-1-isopropyl-1H-pyrazol-5-yl)-6-hydroxy-4-(4-(1-methyl-4-(trifluoromethyl)-1H-imidazol-2-yl)benzyl)-6,7-dihydropyrazolo[1,5-α]pyrimidin-5(4H)-one], for which the half-life at 1 μM in series [1] and in series [3] was above 25 min throughout. The solubility at 24 h in series [2] (setting [4]) and in series [2] (setting [5]) was below 10 µM in each case. Besides, the IC50 on USP1/UAF1 enzyme fell in the range of 0.1 to 0.5 µM.

Turning to `CCn1cc(C(F)(F)F)nc1-c1ccc(NC2CCCn3nc(-c4c(Cl)cnn4C(C)C)nc32)cc1F` (stereo not drawn) [Example 257, 2-(4-chloro-1-isopropyl-1H-pyrazol-5-yl)-N-(4-(1-ethyl-4-(trifluoromethyl)-1H-imidazol-2-yl)-3-fluorophenyl)-5,6,7,8-tetrahydro-[1,2,4]triazolo[1,5-a]pyridin-8-amine], the half-life at 1 μM in series [1] and in series [3] was above 25 min in each case. Besides, the solubility at 24 h in series [2] (setting [4]) and in series [2] (setting [5]) was below 10 µM throughout. Besides, the IC50 at USP1/UAF1 enzyme lay in the range of 0.1 to 0.5 µM.

On to `COc1cccnc1-c1ccc(CN2C(=O)CCn3nc(-c4c(Cl)cnn4C(C)C)cc32)cc1Cl` [Example 288], for which the half-life at 1 μM in series [1] and in series [3] was below 25 min each time. In addition, the solubility at 24 h in series [2] (setting [4]) is at least 10 µM; in series [2] (setting [5]) it was below 10 µM. In addition, at USP1/UAF1 enzyme, the IC50 is below 0.1 µM.

With `CC(C)Oc1cccnc1-c1ccc(CN2C(=O)CCn3nc(-c4c(Cl)cnn4C(C)C)cc32)cc1Cl` [Example 310], the half-life at 1 μM in series [1] and in series [3] was below 25 min throughout. Moreover, the solubility at 24 h is at least 10 µM in series [2] (setting [4]) and below 10 µM in series [2] (setting [5]). The concentration for half-maximal inhibition (IC50) at USP1/UAF1 enzyme was below 0.1 µM.

In the case of `CC(C)n1ncc(Cl)c1-c1cc2n(n1)CCC(=O)N2Cc1ccc(-c2ncccc2N(C)C)c(Cl)c1` [Example 312], the half-life at 1 μM in series [1] and in series [3] was below 25 min each time. The solubility at 24 h in series [2] (setting [4]) was at least 10 µM; in series [2] (setting [5]) it was below 10 µM. Besides, the IC50 at USP1/UAF1 enzyme was below 0.1 µM.

Regarding `CCn1cc(C(F)(F)F)nc1-c1ccc(CN2C(=O)CCn3nc(-c4c(C(F)F)cnn4C(C)C)cc32)cc1F` [Example 328, 2-(4-(difluoromethyl)-1-isopropyl-1H-pyrazol-5-yl)-4-(4-(1-ethyl-4-(trifluoromethyl)-1H-imidazol-2-yl)-3-fluorobenzyl)-6,7-dihydropyrazolo[1,5-α]pyrimidin-5(4H)-one], the half-life at 1 μM in series [1] and in series [3] was above 25 min throughout. The solubility at 24 h is at least 10 µM in series [2] (setting [4]) and below 10 µM in series [2] (setting [5]). Further, the IC50 on USP1/UAF1 enzyme was in the range of 0.1 to 0.5 µM.

Take `CCn1cc(C(F)(F)F)nc1-c1ccc([C@@H](C)n2c(=O)ccn3nc(-c4c(OC)ncnc4C4CC4)nc23)cc1F` [Example 341, (R)-2-(4-cyclopropyl-6-methoxypyrimidin-5-yl)-4-(1-(4-(1-ethyl-4-(trifluoromethyl)-1H-imidazol-2-yl)-3-fluorophenyl)ethyl)-[1,2,4]triazolo[1,5-a]pyrimidin-5(4H)-one]: the half-life at 1 μM in series [1] and in series [3] was above 25 min each time. Also, the solubility at 24 h in series [2] (setting [4]) and in series [2] (setting [5]) was at least 10 µM throughout. On USP1/UAF1 enzyme, the half-inhibitory concentration (IC50) was below 0.1 µM.

As for `CCn1cc(C(F)(F)F)nc1-c1ccc([C@H](C)n2c(=O)ccn3nc(-c4c(OC)ncnc4C4CC4)nc23)cc1F` [Example 342, (S)-2-(4-cyclopropyl-6-methoxypyrimidin-5-yl)-4-(1-(4-(1-ethyl-4-(trifluoromethyl)-1H-imidazol-2-yl)-3-fluorophenyl)ethyl)-[1,2,4]triazolo[1,5-a]pyrimidin-5(4H)-one], the half-life at 1 μM in series [1] and in series [3] was above 25 min in each case. In addition, the solubility at 24 h in series [2] (setting [4]) and in series [2] (setting [5]) was at least 10 µM throughout. Moreover, the IC50 at USP1/UAF1 enzyme is below 0.1 µM.

What is called half-life is the time in which the quantity being followed falls by half. Read a low half-life as fast loss. The solubility is the dissolved amount per volume that the medium holds. The IC50 is the concentration needed to halve the response being measured.
